Source: ChEMBL document CHEMBL5537116, “Synthesis and structure-activity optimization of hydroxypyridinones against rhabdomyolysis-induced acute kidney injury” (Eur J Med Chem, 2024)
Activity calls are given as the source filed them. The rule behind the calls is not given here.

Tests used:
[1] = Competitive binding affinity to Fe3+ ion assessed as metal chelating activity by measuring binding constant by calcein probe based fluorescence displacement assay
[2] = Cytotoxicity against human HK-2 cells assessed as cell growth inhibition incubated for 48 hrs by SRB assay; type: toxicity, cell-based
[3] = test system: HK-2; experiment: Inhibition of RSL-3 induced ferroptosis in human HK-2 cells incubated for 48 hrs in presence of FAC; type: functional, cell-based; settings: HK-2, 48 h
[4] = Antioxidant activity assessed as ABTS radical scavenging activity incubated for 6 mins by absorbance based microplate reader analysis; type: functional
[5] = test system: HK-2; experiment: Anti-ferroptotic activity against RSL3-induced ferroptosis in human HK-2 cells assessed as decrease in lipid peroxidation by measuring fluorescent intensity preincubated with FAC for 2 hrs followed by compound addition and measured after 12 hrs by flow cytometry analysis; type: functional, cell-based
[6] = Potency index, ratio of trolox IC50 to test compound IC50 for antioxidant activity assessed as ABTS radical scavenging activity incubated for 6 mins by absorbance based microplate reader analysis; type: functional
[7] = test system: HK-2; experiment: Upregulation in intracellular HIF-1alpha level in human HK-2 cells at 50 uM under normoxia condition incubated for 12 hrs by Western blot analysis; type: functional, cell-based
[8] = test system: Mus musculus; experiment: (§1) Reno-protective activity against glycerol-induced rhabdomyolysis acute kidney injury C57BL/6 mouse model assessed as decrease in serum creatinine level at 50 mg/kg, ip preadministered with every 12 hrs of compound for 5 times in first three days with subsequent 1 hrs compound treatment after 16 hrs of water deprivation followed by glycerol administration and measured on day 5; type: functional; set-up: scale not given: the % may be the effect or the level left; settings: time 5 day
[9] = test system: Mus musculus; experiment: as §1, with “BUN” for “serum creatinine”; type: functional; set-up: scale not given: the % may be the effect or the level left; settings: time 5 day
[10] = Sub-acute in C57BL/6 mouse assessed as animal death at 1 mg/kg, ip measured on day 2; type: toxicity, organism-based; settings: in vivo, 48 h, time 2 day
[11] = test system: Mus musculus; experiment: as §1, with “BUN” for “serum creatinine”, “4 to 10” for “50”; type: functional, organism-based; settings: dose 4-10 mg/kg, time 5.0 day
[12] = test system: Mus musculus; experiment: (§2) Reno-protective activity against glycerol-induced rhabdomyolysis acute kidney injury C57BL/6 mouse model assessed as downregulation of Ptgs2 mRNA expression at 4 to 10 mg/kg, ip preadministered with every 12 hrs of compound for 5 times in first three days with subsequent 1 hrs compound treatment after 16 hrs of water deprivation followed by glycerol administration and measured on day 5 by qRT-PCR analysis; type: functional, organism-based; settings: dose 4-10 mg/kg, time 5.0 day
[13] = test system: Mus musculus; experiment: as §2, with “decrease in iron accumulation in kidney” for “downregulation of Ptgs2 mRNA expression”, “5” for “5 by qRT-PCR analysis”; type: functional, organism-based; settings: dose 4-10 mg/kg, time 5.0 day
[14] = test system: Mus musculus; experiment: as §1, with “BUN” for “serum creatinine”, “4” for “50”; type: functional; set-up: scale not given: the % may be the effect or the level left; settings: time 5 day
[15] = Sub-acute in C57BL/6 mouse assessed as poisoning symptoms at 1 mg/kg, ip measured for 7 days; type: toxicity, organism-based; settings: in vivo, 168 h, time 7 day
[16] = test system: Mus musculus; experiment: Upregulation of HIF-1alpha expression in C57BL/6 mouse kidney at 50 mg/kg, ip administered for every 12 hrs for 3 days and measured after 5 days; type: functional, organism-based
[17] = Sub-acute in C57BL/6 mouse assessed as animal death at 1 mg/kg, ip measured for 7 days; type: toxicity, organism-based; settings: in vivo, 168 h, time 7 day
[18] = test system: HK-2; experiment: Upregulation in intracellular HIF-1alpha level in human HK-2 cells at 20 uM under normoxia condition incubated for 12 hrs by Western blot analysis; type: functional, cell-based
[19] = Sub-acute in C57BL/6 mouse assessed as change in body weight at 200 mg/kg, ip measured for 7 days; type: toxicity, organism-based; settings: in vivo, 168 h, time 7 day
[20] = test system: Mus musculus; experiment: as §2, with “[…]” for “Ptgs2”; type: functional, organism-based; settings: dose 4-10 mg/kg, time 5.0 day
[21] = test system: Mus musculus; experiment: as §1, with “10” for “50”; type: functional; set-up: scale not given: the % may be the effect or the level left; settings: time 5 day
[22] = test system: Mus musculus; experiment: as §1, with “BUN” for “serum creatinine”, “10” for “50”; type: functional; set-up: scale not given: the % may be the effect or the level left; settings: time 5 day
[23] = test system: Mus musculus; experiment: as §1, with “4 to 10” for “50”; type: functional, organism-based; settings: dose 4-10 mg/kg, time 5.0 day
[24] = Toxicity in C57BL/6 mouse assessed as kidney damage at 10 mg/kg, ip measured for 3 days by H and E staining based analysis; type: organism-based; settings: in vivo, 72 h, time 3 day
[25] = test system: Mus musculus; experiment: as §1, with “4” for “50”; type: functional; set-up: scale not given: the % may be the effect or the level left; settings: time 5 day
[26] = biological target: Hypoxia-inducible factor 1-alpha (Homo sapiens) (UniProt Q16665); experiment: Induction of HIF-1alpha stabilization in human HK-2 cells by Western blotting analysis; type: cell-based; settings: dose 5-20 µM
Chain of Hypoxia-inducible factor 1-alpha (Homo sapiens) (Q16665 whole entry, looked up): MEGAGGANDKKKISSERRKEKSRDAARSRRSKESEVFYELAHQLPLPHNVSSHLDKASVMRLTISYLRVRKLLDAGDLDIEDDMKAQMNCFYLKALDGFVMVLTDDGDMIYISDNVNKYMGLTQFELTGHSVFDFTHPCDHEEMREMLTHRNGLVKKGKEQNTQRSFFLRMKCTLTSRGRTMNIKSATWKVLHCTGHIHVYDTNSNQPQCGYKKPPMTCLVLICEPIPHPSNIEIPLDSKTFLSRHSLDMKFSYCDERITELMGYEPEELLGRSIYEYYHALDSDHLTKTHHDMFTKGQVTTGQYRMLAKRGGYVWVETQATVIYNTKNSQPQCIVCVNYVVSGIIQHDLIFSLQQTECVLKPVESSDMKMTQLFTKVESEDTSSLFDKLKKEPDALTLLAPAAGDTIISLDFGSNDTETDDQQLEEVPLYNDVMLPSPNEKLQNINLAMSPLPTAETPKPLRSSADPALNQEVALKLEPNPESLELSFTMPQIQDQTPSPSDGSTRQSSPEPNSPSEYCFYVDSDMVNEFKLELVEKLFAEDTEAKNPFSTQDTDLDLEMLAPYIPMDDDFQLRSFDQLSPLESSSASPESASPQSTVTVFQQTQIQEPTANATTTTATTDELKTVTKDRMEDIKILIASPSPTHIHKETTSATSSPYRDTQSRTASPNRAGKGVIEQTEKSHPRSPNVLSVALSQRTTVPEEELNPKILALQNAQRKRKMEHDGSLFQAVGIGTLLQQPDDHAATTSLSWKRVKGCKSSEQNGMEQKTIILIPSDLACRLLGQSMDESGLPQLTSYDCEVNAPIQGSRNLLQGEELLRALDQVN

| SMILES | Kb [1] | CC50 at 48 h [2] [µM] | EC50 [3] [µM] | other results |
| --- | --- | --- | --- | --- |
| Cc1c(O)c(=O)ccn1-c1ccc(N(C)C)cc1 | 0.98 10^22/M | > 100 | 45 | – |
| Cc1c(O)c(=O)ccn1-c1ccc(OCCCN2CCOCC2)cc1 | 1.23 10^22/M | 78 | 20 | IC50 [4]: 17.2 µM; Activity [5]: Active; Ratio IC50 [6]: 1.5 |
| COc1cc(N2CCN(C)CC2)ccc1-n1ccc(=O)c(O)c1C | 1.88 10^22/M | > 100 | > 100 | – |
| Cc1c(O)c(=O)ccn1CC1CCCCC1 | 1.32 10^22/M | > 100 | > 100 | – |
| Cc1c(O)c(=O)ccn1-c1ccc(N2CCOCC2)cc1 | 1.33 10^22/M | > 100 | 58 | – |
| Cc1c(O)c(=O)ccn1-c1ccc(OCC2CCN(C)CC2)cc1 | 1.12 10^22/M | > 100 | 43 | – |
| Cc1c(O)c(=O)ccn1-c1ccc(NCCN2CCN(C)CC2)cc1 | 1.22 10^22/M | > 100 | 44 | – |
| Cc1c(O)c(=O)ccn1-c1ccc(N2CCN(C)CC2)cc1 | 1.3 10^22/M | 81 | 60 | Activity [7]: Active |
| Cc1c(O)c(=O)ccn1-c1ccc(OCCOCCN(C)C)cc1 | 1.79 10^22/M | 68 | 28 | IC50 [4]: 22.2 µM; Activity [5]: Active; Ratio IC50 [6]: 1.5 |
| Cc1c(O)c(=O)ccn1-c1ccc(OCCN(C)C)cc1 | 1.37 10^22/M | > 100 | 18 | IC50 [4]: 22.9 µM; Activity [5]: Active; Ratio IC50 [6]: 1.5 |
| Cc1c(C)c2c(c(C)c1O)CCC(C)(C(=O)O)O2 (centres undefined) [TROLOX] | – | – | – | IC50 [4]: 33.7 µM |
| CCc1c(O)c(=O)ccn1CCc1ccccc1 | 1.69 10^22/M | > 100 | > 100 | – |
| Cc1c(O)c(=O)ccn1CCc1ccccc1 | 1 10^22/M | > 100 | > 100 | – |
| Cc1c(O)c(=O)ccn1C [DEFERIPRONE] | 1.52 10^22/M | > 100 | > 100 | Activity [8]: 19%; Activity [9]: 18%; IC50 [4]: 16 µM; Activity [10]: Toxic |
| Cc1c(O)c(=O)ccn1-c1ccc(NCCN(C)C)cc1 | 1.4 10^22/M | > 100 | 35 | – |
| Cc1c(O)c(=O)ccn1-c1ccc(N(C)CCO)cc1 | 1.15 10^22/M | > 100 | 46 | – |
| Cc1c(O)c(=O)ccn1-c1ccc(OC2CCN(C)C2)cc1 (centres undefined) | 1.35 10^22/M | > 100 | > 100 | – |
| Cc1c(O)c(=O)ccn1CCN(C)C | 1.21 10^22/M | > 100 | > 100 | – |
| Cc1c(O)c(=O)ccn1-c1ccc(N2CCN(C)CC2)c(F)c1 | 1.17 10^22/M | > 100 | 93 | – |
| Cc1c(O)c(=O)ccn1-c1ccc(N(C)CCN(C)C)cc1.Cl | 1.16 10^22/M | > 100 | 20 | Activity [11]: Active; Activity [12]: Active; Activity [13]: Active; Activity [14]: 19%; Activity [15]: Non-Toxic; IC50 [4]: 12.3 µM; Activity [16]: Active; Activity [17]: Non-Toxic; Activity [18]: Active; Activity [19]: Non-Toxic; Activity [20]: Active; Activity [21]: 68%; Activity [22]: 44%; Activity [23]: Active; Activity [5]: Active; Activity [24]: Non-Toxic; Ratio IC50 [6]: 1.5; Activity [25]: 14%; Activity [26]: Dose-Dependent Effect |
| Cc1c(O)c(=O)ccn1-c1ccc(OCCN2CCCCC2)cc1 | 2.23 10^22/M | > 100 | 86 | – |
